Measurements from PubChem BioAssay (NCI).
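Five concentrations, 48 hours, 96-well plates. TGI: concentration producing complete growth inhibition.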 Where a SMILES comes first, the peptide text is derived from it. The star is where a group is joined. Ethyl(2-NMe3+) = C[N+](C)(C)CC*; Boc = CC(C)(C)OC(=O)*

Legend:
Assay in all cases: NCI anticancer screen, dose series, 48 h
UO-31 renal = system: UO-31 renal
SNB-75 CNS = system: SNB-75 CNS
SF-268 CNS = system: SF-268 CNS
MDA-N = system: MDA-N
EKVX NSCLC = system: EKVX NSCLC
786-0 renal = system: 786-0 renal
SK-MEL-5 melanoma = system: SK-MEL-5 melanoma
CAKI-1 renal = system: CAKI-1 renal
HT29 colon = system: HT29 colon
MDA-MB-435 = system: MDA-MB-435
RPMI-8226 leukemia = system: RPMI-8226 leukemia
UACC-257 melanoma = system: UACC-257 melanoma
U251 CNS = system: U251 CNS
IGROV1 ovarian = system: IGROV1 ovarian
TK-10 renal = system: TK-10 renal
OVCAR-4 ovarian = system: OVCAR-4 ovarian
OVCAR-5 ovarian = system: OVCAR-5 ovarian
RXF 393 renal = system: RXF 393 renal

Row | SMILES | TGI (UO-31 renal) [µM] | TGI (SNB-75 CNS) [µM] | TGI (SF-268 CNS) [µM] | TGI (MDA-N) [µM] | TGI (EKVX NSCLC) [µM] | TGI (786-0 renal) [µM] | TGI (SK-MEL-5 melanoma) [µM] | TGI (CAKI-1 renal) [µM] | TGI (HT29 colon) [µM] | TGI (MDA-MB-435) [µM] | TGI (RPMI-8226 leukemia) [µM] | TGI (UACC-257 melanoma) [µM] | TGI (U251 CNS) [µM] | TGI (IGROV1 ovarian) [µM] | TGI (TK-10 renal) [µM] | TGI (OVCAR-4 ovarian) [µM] | TGI (OVCAR-5 ovarian) [µM] | TGI (RXF 393 renal) [µM]
1 | Cc1ccc(C(=O)Nc2ccc(CP(=O)(O)O)cc2CP(=O)(O)O)cc1NC(=O)c1cccc(NC(=O)Nc2cccc(C(=O)Nc3cc(C(=O)Nc4ccc(CP(=O)(O)O)cc4CP(=O)(O)O)ccc3C)c2)c1 | > 100 | > 100 | > 100 | > 100 | > 100 | > 100 | > 100 | > 100 | > 100 | > 100 | > 100 | > 100 | > 100 | > 100 | > 100 | > 100 | > 100 | > 100
2 | CC1(C)C/C(=N/O)c2c(nc3ccc4ccccc4c3c2-c2ccc(Cl)cc2)C1 | 43.5 | 35.7 | 30.1 | > 100 | 29.7 | 15.2 | > 100 | 26.3 | 33.5 | > 100 | > 100 | 91.2 | 24 | 31.6 | 33.9 | 30.4 | > 100 | 39.4
3 | COc1ccc(C2=NN(C(N)=S)C(c3ccccc3)C2)cc1 (configuration not stated) | > 100 | 87.5 | > 100 | > 100 | > 100 | > 100 | 32.3 | > 100 | > 100 | > 100 | 74.8 | 99.1 | > 100 | > 100 | > 100 | > 100 | > 100 | 88.4
4 | CCCCN(Cc1ccccc1)C(=NC#N)N(Cc1ccccc1)Cc1ccccc1 | > 52.4 | 71.4 | > 100 | 59.9 | > 100 | 56.2 | 29.4 | 58.4 | 85.2 | 59.3 | 49.8 | 50.7 | 81.4 | > 89.5 | > 100 | > 100 | > 100 | 63.8
5 | O=[N+]([O-])c1cc2c(c([N+](=O)[O-])c1)NCc1ccccc1O2 | > 100 | 48.2 | > 100 | > 100 | > 100 | > 100 | > 100 | > 100 | > 100 | > 100 | > 100 | > 100 | > 100 | > 100 | > 100 | > 100 | > 100 | > 100
6 | Cc1ccc(C2SC(N)=Nc3c2c(C)nn3C(=O)c2ccccc2O)cc1 (configuration not stated) | > 10 | 7.14 | > 10 | > 10 | > 10 | > 10 | > 10 | > 10 | > 10 | > 10 | > 10 | > 10 | > 10 | > 10 | > 10 | > 10 | > 10 | > 10
7 | C=CCN1C(=O)/C(=C/c2ccc(C)cc2)NC1=S | > 100 | > 100 | > 100 | > 100 | 97.1 | > 100 | > 100 | > 100 | > 100 | > 100 | > 100 | > 100 | > 100 | > 100 | > 100 | > 100 | > 100 | > 100
8 | C=CCc1ccccc1CC1(OCC)OC(=O)c2ccccc21 (configuration not stated) | > 100 | 53.1 | > 100 | 71.8 | > 100 | > 100 | > 100 | > 100 | > 100 | 96.9 | > 100 | > 100 | > 100 | > 100 | > 100 | > 100 | > 100 | > 100
9 | S=C1CSc2c(ccc3ccccc23)N1 | > 100 | > 100 | > 100 | > 100 | > 100 | > 100 | > 100 | > 100 | > 100 | > 100 | > 100 | > 100 | > 100 | > 100 | > 100 | > 100 | > 100 | > 100
10 | Cc1cc2nc(N3C(=O)/C(=C/c4ccccc4S)N=C3c3ccccc3)sc2cc1C | > 100 | > 100 | > 100 | 39.1 | > 100 | 60.5 | > 100 | > 100 | 76.7 | 95.9 | > 100 | > 100 | > 100 | > 100 | > 100 | > 100 | > 100 | 94.4
11 | CN(N)/N=N/c1nc[nH]c1[N+](=O)[O-] | > 100 | > 100 | > 100 | > 100 | > 100 | 55.2 | > 100 | 40.9 | > 100 | > 100 | 57.3 | > 100 | > 100 | > 100 | > 100 | > 100 | > 100 | > 100
12 | COC(=O)c1c2c(cc3c1CC1(Cc4ccc(C(C)=O)cc4C1)C3)CCC2 (configuration not stated) | > 100 | > 100 | > 100 | 28.5 | > 100 | > 100 | 45.4 | > 100 | 89 | 50.8 | > 100 | > 100 | > 100 | > 100 | > 100 | > 100 | > 100 | 80
13 | C#C[C@]1(O)CC[C@H]2[C@@H]3CCC4=C/C(=N/NC(=O)c5cccc6cc7ccccc7nc56)CC[C@@H]4[C@H]3CC[C@@]21CC |  | > 100 | > 100 | > 100 |  | > 100 | 63.7 | > 100 | > 100 | > 100 | > 100 | > 100 | > 100 | > 100 |  | > 100 | > 100 | > 100
14 | c1ccc2c(c1)cc1c3[nH]c4ccccc4c3ccn21 | > 10 | > 10 | > 10 | > 10 | > 10 | > 10 | > 10 | > 10 | > 10 | > 10 | > 10 | > 10 | > 10 | > 10 | > 10 | > 10 | > 10 | > 10
15 | CN(C)CCCNc1c(C#N)[n+]([O-])c2cc(Cl)ccc2[n+]1[O-] | > 46.3 | > 100 | > 64.4 | > 59.9 | 22.5 | > 100 | 10.9 | > 51.8 | > 40 | > 67.2 | 26.4 | > 50 | > 66.6 | 10.5 | > 39.9 | 14.2 | > 100 | > 100
16 | CC1=NN(C(=O)CC(=O)Nc2ccc(C)cc2)C(=O)C1N=Nc1ccc(S(=O)(=O)c2ccc(N=NC3C(=O)N(C(=O)CC(=O)Nc4ccc(C)cc4)N=C3C)cc2)cc1 (configuration not stated) | > 100 | > 100 | > 100 | > 100 | > 100 | > 100 | > 100 | > 100 |  | > 100 | > 100 | > 100 | > 100 | > 100 | > 100 | > 100 | > 100 | > 100
17 | CCN(C(C)=O)c1cnc(/C=N/NC(N)=S)c2ccccc12 | 7.85 | > 100 | > 100 | > 100 | > 100 | > 26.6 | > 67.1 | > 51.9 | > 100 | > 100 | > 100 | > 100 | > 100 | > 100 | > 100 | > 100 | > 100 | > 100
18 | CC(NC(=O)C(Cc1ccc(OCC[N+](C)(C)C)cc1)NC(=O)OC(C)(C)C)C(=O)NC(Cc1ccccc1)C(=O)NCC(N)=O (configuration not stated) (Boc-Y(Ethyl(2-NMe3+))AFG-NH2; configuration not given here) | > 100 | 30.3 | 25.7 | > 100 |  | 44.6 | > 100 | > 100 | > 100 | > 100 | > 100 | > 100 | 12.8 | 58.4 | 24 | > 100 | 59.5 | 24
19 | O=C(NNCc1ccco1)c1cc2ccccc2[nH]1 | > 100 | > 100 | > 100 | > 100 | > 100 | > 100 | > 100 | > 100 | > 100 | > 100 | > 100 | > 100 | > 40.9 | > 100 | > 100 | > 71.8 | > 100 | > 100
20 | O=C1CCCC1C(O)(C(F)(F)F)C(F)(F)F (configuration not stated) | > 100 | > 100 | > 100 | > 100 | > 100 | > 100 | > 100 | > 100 | > 100 | > 100 | > 100 | > 100 | > 100 | > 100 | > 100 | > 100 | > 100 | > 100
21 | Cc1ccc(C)n1-c1ccccc1C1C=CN(C(=O)OC(C)(C)C)C=C1 | > 100 | 56.6 | > 100 | > 100 | 60.8 | > 100 | > 100 | > 100 | 27.7 | > 100 | > 100 | > 100 | 77.8 | > 100 | > 100 | > 100 | > 100 | 60.4
22 | Cc1ccc2c(c1)CC1(Cc3c(C)cccc3C1=O)C2=O (configuration not stated) | > 100 | 89.7 | > 100 | > 100 | > 100 | > 100 | > 100 |  | > 100 | > 100 | > 100 | > 100 | > 100 | > 100 | > 100 | > 100 | > 100 | > 100
23 | O=C(Cc1ccc(Cl)cc1)Nc1ccc2oc(-c3ccccc3)nc2c1 |  | 72.1 | > 100 | > 100 | > 100 | > 100 | > 100 | > 100 | > 100 | > 100 | > 100 | > 100 | > 100 | > 100 | > 100 | > 100 | > 100 | > 100
24 | CC(C)=c1sc(=C(C)C)c2c1=NC(C)(C)N=2 |  |  | > 100 | > 100 | > 100 | > 100 | > 100 | > 100 | > 100 | > 100 | > 100 | > 100 | > 100 | > 100 | > 100 | > 100 | > 100 | > 100
25 | C=CC[C@@]1([C@H](C=C)COCc2ccc(OC)cc2)CC[C@]2(C)OC(C)(C)[C@@H](c3ccccc3)N2C1=S | > 100 | > 100 | > 100 | > 100 | > 100 | > 100 | 61.8 | > 100 | > 100 | > 100 | > 100 | > 100 | > 100 |  | > 100 | > 100 | > 100 | > 100
26 | COc1cccc(-c2nc3ccccc3c(=O)[nH]2)c1OC | > 100 | > 100 | > 100 | > 100 | > 100 | > 100 | > 100 | > 100 | > 100 | > 100 | 49.4 | > 100 | > 100 | > 100 |  | > 100 | > 100 | > 100
